Experimental data from PMC9494960, “Antiamoebic Activity of Imidazothiazole Derivatives against Opportunistic Pathogen Acanthamoeba castellanii” (Antibiotics, 2022).

Experiments:
[1] = test system: A. castellanii genotype T4 (ATCC 50492) trophozoites; assay: Amoebicidal assay (Trypan blue exclusion, haemocytometer counting); type: cell-based, Acanthamoeba castellanii; conditions: for Amoebicidal Activity Inhibition % ± SEM: 50 µM concentration, Supplementary Table S1; for amoebicidal effects / antiamoebic activity against A. castellanii: 50 µM, 24 h, 30 °C; for IC50: tested at 12.5, 25, 50 and 100 µM against A. castellanii
Description: A. castellanii genotype T4 (ATCC 50492) trophozoites were used in this study. The amoebae were axenically cultivated at 30 °C in T-75 cm^3 culture flask using a proteose-peptone yeast extract-glucose (PYG) broth culture. Upon confluency, amoeba cultured flask was placed on ice for 10 min followed by gently tapping to dislodge the adhered trophozoites. Next, culture was centrifuged at 3000× g for 5 min. The supernatant was discarded and the pellet was re-suspended in 1 mL of Roswell Park Memorial Institute (RPMI) media. Finally, amoebae were counted via haemocytometer microscopically and the desired initial inoculum (5 × 10^5) was adjusted and used in different assays. Different molecules were tested against A. castellanii to examine their antiamoebic effects as previously reported. Briefly, A. castellanii (5 × 10^5) were incubated with 50 µM of the tested compounds for 24 h at 30 °C with a final assays volume of 0.5 mL in a 24-well plate. For controls, amoebae cultured in RPMI alone and with 0.25% sodium dodecyl sulfate (SDS) was taken as negative and positive control, respectively. Finally, each well was stained with Trypan blue (0.1%) and viable amoebae trophozoites were enumerated by haemocytometer. In some trails, these compounds were tested at different concentrations (12.5, 25, 50 and 100 µM) to determine their 50% inhibitory concentration (IC50) against A. castellanii.

[2] = test system: A. castellanii binding to HeLa cells; assay: Adhesion assay: amoebae binding to human cells; type: cell-based, Acanthamoeba castellanii; conditions: amoebae pre-treated with 50 µM for 2 h; 60 min on HeLa monolayer
Description: Adhesion assays were performed to determine how the tested molecules affect the binding capability of amoebae to human cells. Firstly, A. castellanii (5 ×10^5) trophozoites were treated with 50 µM of the compounds in serum-free RPMI medium at 30 °C for 2 h. Next, pre-treated amoebae were centrifuged at 3000× g for 5 min and re-suspended the amoeba in 200 µL of RPMI medium. The total assay volume including pre-treated amoeba was transferred to a confluent HeLa cell monolayer cultured in 96-well plates. For control, amoebae trophozoites alone were added to HeLa cell monolayer. The plates were incubated for 60 min at 37 °C with 5% CO2 and 95% humidity and amoebae (unbound) were then counted by haemocytometer. Percent bound amoebae was calculated using the following formula: % amoebae (bound) = 100 − amoebae (unbound)(1)

[3] = test system: A. castellanii trophozoites; assay: Encystation assay; type: cell-based, Acanthamoeba castellanii; conditions: 50 µM, 16% glucose, 30 °C, 48–72 h; negative control 100%
Description: Encystation assays were performed to determine the effects of the tested compounds to prevent the differentiation of A. castellanii trophozoites into the cyst form and 50 µM of the tested compounds were utilized. Briefly, A. castellanii (1 × 10^6) trophozoites were incubated with these compounds with 16% filter-sterilized glucose (as encystation medium) at 30 °C 48–72 h. A. castellanii cultured alone in 16% glucose was taken as negative control. After this incubation, 0.1% sodium dodecyl sulfate (SDS) was added to each well and agitated the plate for 20 min. The SDS resistant cysts were enumerated using a haemocytometer and data was recoded.

human cell lines = assay: MTT assay (EC50/CC50 and MNTD90); type: cell-based; conditions: for CC50: 50% effective/cytotoxic concentration (CC50), tested at 12.5–100 µM; for EC90: Maximum Non-Toxic Dose, read-out: MNTD/EC90
[4] = test system: A. castellanii-mediated HeLa cell death; assay: Amoeba-mediated host cell cytotoxicity (cytopathogenicity assay, LDH); type: cell-based, Acanthamoeba castellanii; conditions: amoebae pre-treated with 50 µM for 2 h; HeLa overnight; negative control amoeba + cells 100%
Description: Cytopathogenicity assays were accomplished to determine the amoeba-mediated host cell death. A. castellanii (5 × 10^5) trophozoites were treated with 50 µM of the tested molecules at 30 °C for 2 h. Culture containing pre-treated amoebae was centrifuged at 3000× g for 5 min and pellet was re-suspended in 200 µL of serum free RPMI. The whole assay volume with pre-treated amoebae was transferred to HeLa cell monolayer cultured in a 96 well plates. Next, the plates were kept for overnight at 37 °C with 95% humidity and 5% CO2. Finally, amoeba-mediated host cell cytotoxicity was evaluated indirectly by measuring the amount of LDH enzyme released into cell media by damaged cells, as reported earlier.

V600E-B-RAF = test system: V600E-B-RAF; set-up: method as in PMID 32962435; conditions: cited from earlier work
C-RAF = test system: C-RAF; set-up: method as in PMID 32962435; conditions: cited from earlier work
A. castellanii = test system: A. castellanii; set-up: method as in PMID 34959694; conditions: cited from earlier work

O=C(NCCNc1nccc(-c2c(-c3cccc(O)c3)nc3sccn23)n1)c1ccc(N2CCOCC2)c(C(F)(F)F)c1 [Compound 1zb]
Amoebicidal Activity Inhibition % ± SEM [1]: 67.00% ± 3.19%
amoebicidal effects / antiamoebic activity against A. castellanii [1]: 67%
IC50 [1]: 32.4 µM
inhibition of amoebae binding to human cells [2]: 55%
encystation blocked (trophozoites prevented from converting into cysts) [3]: 78%
CC50 (human cell lines): 434 µM
EC90 (human cell lines): 24.1 µM
amoeba-mediated host cell death reduced up to [4]: 46%

COc1cccc(-c2nc3sccn3c2-c2ccnc(NCCNC(=O)Nc3cccc(C(F)(F)F)c3)n2)c1 [Compound 1m]
Amoebicidal Activity Inhibition % ± SEM [1]: 69.17% ± 2.39%
amoebicidal effects / antiamoebic activity against A. castellanii [1]: 70%
IC50 [1]: 30 µM
inhibition of amoebae binding to human cells [2]: 61%
encystation blocked (trophozoites prevented from converting into cysts) [3]: 72%
CC50 (human cell lines): 313 µM
EC90 (human cell lines): 29.5 µM
amoeba-mediated host cell death reduced up to [4]: 33%
inhibitory effects against V600E-B-RAF kinase (V600E-B-RAF): modest inhibitory effects
inhibitory effects against C-RAF kinase (C-RAF): modest inhibitory effects

O=C(NCCNc1nccc(-c2c(-c3ccc(F)cc3)nc3sccn23)n1)c1cc(C(F)(F)F)cc(C(F)(F)F)c1 [Compound 1i]
Amoebicidal Activity Inhibition % ± SEM [1]: 55.05% ± 1.25%
amoebicidal effects / antiamoebic activity against A. castellanii [1]: 55%
IC50 [1]: 43.1 µM
inhibition of amoebae binding to human cells [2]: 42%
encystation blocked (trophozoites prevented from converting into cysts) [3]: 60%
CC50 (human cell lines): 1410 µM
EC90 (human cell lines): 90.9 µM
amoeba-mediated host cell death reduced up to [4]: 45%

CNCC(=O)OCc1cccnc1N(C)C(=O)OC(C)[n+]1cnn(C[C@](O)(c2cc(F)ccc2F)[C@@H](C)c2nc(-c3ccc(C#N)cc3)cs2)c1.O=S(=O)([O-])O (stereo partly drawn) [isavuconazonium sulfate]
concentration that prevented excystment in A. castellanii (A. castellanii): 136 µM
